In assay [1] the test system is formation of NO, measured as NO2− (nitrites). The assay can be described thus: Inhibition of NO (nitrite) formation in rabbit joint chondrocytes stimulated by IL-1β. In kind it is cell-based. To be noted: Oryctolagus cuniculus, Chondrocyte, IL-1β 1 ng/ml, 48 hours, NO determined as nitrites. The procedure:
a) The activity in inhibiting the formation of NO, measured as NO2^− (nitrites), PGE2, and neutral protease, was investigated in vitro on culture broths of rabbit joint chondrocytes stimulated by cytokine IL-1β (1 ng/ml) for 48 hours. For the preparation of the chondrocytes, the method described by Berenbaum et al [FEBS Letters 340, 51-55 (1994)] was followed. Briefly, fragments of cartilage removed under sterile conditions from the heads of rabbit shoulder, hip and knee joints were chopped finely and digested at 37° C. by hyaluronidase, trypsin and collagenase solutions, giving rise, after filtration on sterile gauze and centrifuging at 600×g and suitable dilution with 10% DMEM-FCS, to a concentration of approximately 1×10^5 cells per well. The cells were kept in these conditions until confluence (about 15 days), the broth being changed every 3 days. At this point, the products under test, dissolved in the medium, were added to each test sample and, after 20 minutes, 350 μl IL-1β was added in order to have a final concentration of 1 ng/ml. The duration of the stimulation was 48 hours at 37° C. (incubation air-CO2 7%). Measurement of the nitrites, as described by Green et al. [Anal. Biochem. 126, 131-138 (1982)], and of the PGE2s by RIA measurement, was then performed on the cell supernatant fluid. The measurement of the neutral proteases was performed in the cell supernatant fluid containing the p-aminophenyl mercury acetate (APMA) activator with the use of azocoll as the substrate and with incubation at 37° C. for 17 h as described by Chavira et al. [Anal. Biochem. 136, 446-450 (1984)]. In order to evaluate the direct inhibitory effect of the compounds under test on the hydrolytic activity of the cell supernatant fluid, they were added to the supernatant fluid containing the proteases induced by IL-1β and already activated by AMPA.
The results obtained are shown in Table 3, in which the IC50, that is, the concentration (micromolar) of antagonist which can inhibit the formation of nitrites, PGE2s, and neutral proteases, respectively, by 50% relative to the control group, that is, to the cells stimulated with IL-1β but without the addition of antagonists, is given for some of the compounds of the invention already given by way of example in Table 2.

Assay [2] deals with colitis induced by TNBS in rats. The assay can be described thus: Colitis induced by TNBS in rats. To be noted: for Weight of the colon: 48 hours after TNBS; for Weight of the colon / Myeloperoxidase activity / iNOS activity / Macroscopic damage (MDS): mean ± SD; for Myeloperoxidase activity / iNOS activity: colon tissue; for Macroscopic damage (MDS): score 0-10. In kind it is in vivo, rat. The source says:
The combined capability of some of the compounds of the invention to inhibit both iNOS and the synthesis of TNFα has led to their activity being checked in an experimental model of colitis caused by a chemical hapten, trinitrobenzene-sulphonic acid (TNBS), which can bind to the tissue proteins and stimulate cell-mediated immunity. The intrarectal administration of TNBS in association with ethanol causes acute inflammation characterised by extensive ulceration and necrosis.
A distal colitis was therefore induced in the rat by intrarectal instillation of TNBS (40 mg/kg) dissolved in 50% ethanol (0.5 ml/rat). The drugs were administered orally twice a day on days −2; −1; 0; +1 and the animals were killed 48 hours after the administration of TNBS.
The parameters examined were: total weight of the colon (g), macroscopic tissue damage “score”, measurement of the tissue myeloperoxidase (MPO) activity, which is a marker of the infiltration of the neutrophiles, and measurement of the iNOS activity (pmoles/g tissue/min.).
The macroscopic score (MDS) was taken on about 10 cm of colon in accordance with the following arbitrary scale:
The tissue MPO measurement was performed according to Velgara et al., JPET 1994. The measurement of the tissue nitrites was performed by applying the method described above for the chondrocytes to the supernatant fluid of the tissue homogenate.
Compound I-4, administered in doses of 5, 10 and 20 mg/kg, and compound I-11 were examined, by administering them orally, in comparison with sulphasalazine (250 mg/kg) and 5-aminosalicylic acid (5-ASA) (100 mg/kg), 2 drugs which are widely used in the treatment of ulcerative colitis.

pIC50: −log10 of the molar value.

As usually defined, the pIC50 is −log10 of the IC50, conventionally taken in molar units. In the case of `CCCCCNC(=S)Nc1ccc(NC(C)=N)cc1` [Compound I-4, N-[4-(N-acetamidine)phenyl]-N′-pentyl Thiourea], the pIC50 in assay [1] was 5.18. Besides, in assay [2] (5 mg/kg orally twice a day), the “Weight of the colon” value stood at 2.2 ± 0.2 g, the Myeloperoxidase activity is listed as 5.5 ± 1.4 UMPO/g/min, the iNOS activity is 131.7 ± 91.9 pmol/g/min and the “Macroscopic damage (MDS)” value was found to be 5.0 ± 0.9. In addition, in assay [2] (10 mg/kg orally twice a day), the “Weight of the colon” value was determined as 2.1 ± 0.3 g, the Myeloperoxidase activity was 5.0 ± 1.7(*) UMPO/g/min, the iNOS activity is 98.6 ± 60.0 pmol/g/min and the “Macroscopic damage (MDS)” value was 4.4 ± 0.8(*). Besides, in assay [2] (20 mg/kg orally twice a day), the “Weight of the colon” value was determined as 2.0 ± 0.2 g, the Myeloperoxidase activity is recorded as 5.1 ± 1.2(*) UMPO/g/min, the iNOS activity was determined as 61.5 ± 31.4 pmol/g/min and the “Macroscopic damage (MDS)” value was 3.5 ± 0.8(*). In assay [2] (doses of 10 and 20 mg/kg), the “reduction of macroscopic damage” value is reported as “about 50%”, the “reduction of the increase in iNOS activity induced by TNBS” value turned out to be 50% and the “reduction of the increase in tissue MPO activity induced by TNBS” value amounted to 40%.

The values above are taken from US7560591B2, “Benzamidine derivatives having anti-inflammatory and immunosuppressive activity” (Rotta Research Laboratorium S.p.A., priority 2001, dated 2009).
